Measurements published in paper PMC7396997, “Discovery of 4-Anilinoquinolinylchalcone Derivatives as Potential NRF2 Activators” (Molecules, 2020).
pEC50: −log10 of the molar value. Values joined by “and” are separate entries in the source; they are usually repeats but may differ in a detail not shown here. Equal values may be shown once.

Tests used:
NRF2 [1] = assay: Western blot of NRF2 protein in HaCaT cells; format: cell-based, human; settings: 8 h
Protocol: (§1) To further evaluate the effect of compound 13b on NRF2 activation, the mRNA level of NRF2 target genes were determined by real-time PCR.
Cells were washed with PBS and harvested with RIPA lysis buffer (50 mM Tris (pH 7.5), 150 mM NaCl, 1% Tx-100) supplemented with protease and phosphatase inhibitors (1 mM PMSF, 10 μg/mL leupeptin, 50 μg/mL TLCK, 50 μg/mL TPCK, 1 μg/mL aprotinin, 1 mM NaF, 5 mM NaPPi, and 10 mM Na3VO4). The cell lysates were cleared via 10 min spins at 13,000 rpm, 4 °C. Protein concentrations were determined by a Bio-Rad Protein Assay (Bio-Rad, Hercules, CA, USA). Samples corresponded to 20 μg of protein were used for Western blot according to our previous publication. The following antibodies were used: anti-NRF2 (GeneTex, Irvine, CA, USA) and anti-GAPDH (Abcam, Cambridge, MA, USA).
(§2) Figure 5 The compound 13b increased the NRF2 expression at the protein level in the HaCaT cell. (A) HaCaT cells were treated with indicated concentrations of compound 13b for 8 h. Protein expression of NRF2 was determined by Western blot. (B) HaCaT cells were treated with indicated concentrations of 13b for 18 h. Total RNA was isolated and submitted to reverse transcription and real-time PCR for the detection of the NRF2 mRNA level.

NRF2 [2] = assay: ARE-driven luciferase reporter assay (NRF2 activity) in HaCaT/ARE stable cells; format: cell-based, human
Description: In this study, we used a stable ARE-driven reporter system to screen the potential NRF2 activators.

HaCaT/ARE cells = assay: Cell viability (resazurin) in the reporter screen
Protocol: Immortalized human keratinocytes HaCaT were cultured in the Dulbecco’s modified Eagle’s medium (DMEM; Gibco BRL, Grand Island, NY, USA) with 10% heat-inactivated fetal bovine serum (HyClone, Logan, UT, USA), penicillin (100 U/mL), and streptomycin (100 μg/mL) in a humidified incubator with 5% CO2. HaCaT/ARE stable cells were grown in DMEM supplemented with 100 μg/mL of hygromycin.
HaCaT/ARE stable cells were seeded (1 × 10^4 cells/well) in a 96 well plate, then were treated with indicated concentrations of compounds for 18 h. At the assay time point, resazurin (Cayman Chemical, Ann Arbor, MI, USA) was added to a final concentration of 0.1 mg/mL and further incubated for 4 h at 37 °C. Fluorescence of the reduced resazurin (ex/em: 530 nm/590 nm) was measured from the culture supernatant by using a Synergy HT Multi-Mode Reader (BioTek, Winooski, VT, USA) to determine cell viability. The cells were then harvested for luciferase activity measurements according to the manufacturer’s protocol (Promega Corporation, Madison, WI, USA). Relative luciferase activity was calculated by normalizing luciferase activity to cell viability, and DMSO solvent control was used as 100% activity.

NRF2 mRNA = assay: qRT-PCR of NRF2 mRNA in HaCaT cells; format: cell-based, human; settings: 18 h, real-time PCR
Protocol: as §1
(§3) RNA was prepared by using the TRIzol Reagent (Thermo Scientific, Madison, WI, USA) and was reverse transcribed into cDNA using a TOOLs Easy Fast RT Kit (TOOLs Biotechnology, New Taipei City, Taiwan). PCR was performed on an ABI StepOne Plus System (Applied Biosystems, Foster City, CA, USA) using the KAPA SYBR® FAST qPCR Master Mix (2X) Kit (Sigma-Aldrich, St. Louis, MO, USA). The mRNA level was normalized using the glyceraldehyde 3-phosphate dehydrogenase (GAPDH) mRNA level as the standard. The following primers were used: NRF2 forward: 5′-[…] and reverse: 5′-[…]; HO1 forward: 5′-GCCAGCAACAAAGTGCAAG and reverse: 5′-[…]; NQO1 forward: 5′-[…] and reverse: 5′-[…]; GCLC forward: 5′-[…] and reverse: 5′-[…]; G6PD forward: 5′-CAACATCGCCTGCGTTA and reverse: 5′-CTTGACCTTCTCATCACGG; and GAPDH forward: 5′-[…] and reverse: 5′-[…].
as §2

[3] = test system: NRF2 target genes (HO1, G6PD, GCLC); assay: qRT-PCR of NRF2 target genes in HaCaT cells; format: cell-based, human; settings: 18 h, real-time PCR
Protocol: as §1, §3
Figure 4 Compound 13b increased the expression of NRF2 target genes in the HaCaT cell. HaCaT cells were treated with indicated concentrations of 13b for 18 h. Total RNA was isolated and submitted to reverse transcription and real-time PCR for the detection of the NRF2 target genes including HO1 (A), GLCL (B), G6PD (C), and NQO1 (D). Data are expressed as normalized mRNA level and presented as mean ± SD from three independent experiments. The asterisk (*) indicates a significant difference between 13b treated groups and control group (* p< 0.05, *** p< 0.001, one-way ANOVA).

HaCaT cells = assay: Cytotoxicity, 72 h resazurin cell viability assay; format: cell-based, human; settings: HaCaT cells, 72 h; read-out: CC50
Protocol: Cells were seeded in a 96-well plate contained 100 μL culture medium in triplicate and treated with several compounds for 72 h. At the assay time point, resazurin (Cayman Chemical) was added and further incubated for 4 h at 37 °C. Fluorescence of the reduced resazurin was measured as described previously.
Figure 3 The cytotoxicity of 12b, 13b, and 14b in HaCaT cells. HaCaT cells were treated with indicated concentrations of these three compounds for 72 h. Cell viability was determined by a resazurin assay as described in the Materials and Methods section. Data presented as mean ± SD from three independent experiments.

For “(E)-3-{4-[(4-acetylphenyl)amino]quinolin-2-yl}-1-(4-fluorophenyl)prop-2-en-1-one [13b]”, the “expression of NRF2 protein” value (NRF2 [1]) was “effectively enhance”, the “% of Relative NRF2 Activity in HaCaT Cell” value (NRF2 [2]; 10 μM, 24 h (b12; method b59 says 18 h), luciferase normalised to cell viability, DMSO control = 100%) was 2205% and 2205.2 ± 144.9% and the pEC50 (NRF2 [2]; HaCaT/ARE cells, 18 h, dose-response, read-out: EC50 of NRF2 promoter activity) was 5.71. For the same substance, the survival rate (HaCaT/ARE cells; 10 µM) was 96%, the “Cell Viability” value (HaCaT/ARE cells; 10 μM, in % (unit assumed)) was 95.7 ± 1.8 and the “mRNA of NRF2” value (NRF2 mRNA) was “without altering”. For the same substance, the “G6PD mRNA expression” value [3] was “significantly increased”, the “GCLC mRNA expression” value [3] was “significantly increased” and the “HO1 mRNA expression” value [3] was “significantly increased”. It also gave a CC50 (HaCaT cells) greater than 100000 nM.
